Source: patent EP0306167A2, “Stabilization of enzymes by inhibiting proteolytic enzyme contaminants” (TECHNICON INSTRUMENTS CORPORATION(a Delaware corporation), priority 1987, dated 1989)
“Also recorded” adds a separate entry of the source. Where two headings read alike, the source gives them in different places.

Tests used:
PGM/PAGM enzyme solution = experiment: Stability of PGM/PAGM enzyme solution on storage with protease inhibitors (coupled glucose-6-phosphate dehydrogenase rate assay at 340 nm); type: biochemical, Porcine; details: for stabilizing effect compared between inhibitors (in words) / time enzyme activity was protected: DEAE-Tris acryl purified preparation, 4°C; for stabilizing effect compared between inhibitors (in words): pH 7.5, aprotinin .5 mg/ml, leupeptin 0.5 mg/ml, α,α′-bipyridal 2 mM; for time enzyme activity was protected: 50 mM imidazole chloride pH 7.5, p-aminobenzamidine 5mM, benzamidine 5mM; for effect on PGM/PAGM activity (in words): TPCK 2mM
Protocol: The presence of proteases was detected pursuant to the protocol discussed above. The quantitative assay for protease activity was done with N-α - benzoyl-L-arginine-p-nitroanalide as a substrate by a published procedure (H. Fritz, I. Truntschold and E. Werle; "Methods of Enzymatic Analysis", Ed. H. Bergmeyer, Vol. II, Academic Press, N.4. 1974). The method consist of (1) 0.2M triethanolamine buffer (pH 7.8) with 20 mM CaCl₂, (2) trypsin standard in 1 mM HCl, (3) substrate solution, 2.2 mM in water. The sensitivity can be enhanced four-fold if the concentration of the substrate was increased five times. A clear solution of the substrate was obtained by placing it in a boiling water bath for 5 minutes. The reaction mixture consisted of a .675 ml buffer and 0.325 ml substrate solution. The rate was measured at 405 nm at 37°C on a DU 8 spectrophotometer from Beckman Instruments, Inc. It was possible to detect protease activity equivalent to 1 mg/L trypsin when the standard trypsin was activity of 11000 u/mg with substrate N-α-benzoyl-L-arginine p-nitroanalide. The activity of the PGM/PAGM enzyme solution was determined using the following reaction mixture. NAD⁺, 10⁻³M; glucose-1-phosphate, 2x10⁻⁴M; glucose-1,6-diphosphate, 10⁻⁵M; Mg Acetate, 2 x 10⁻³M; EDTA, 2 x 10⁻⁴M and 1 u/ml glucose-6-phosphate dehydrogenase in 50 mM imidazole acetate, pH 7.5. The reaction was started by adding an aliquot of the enzyme solution and the rate was measured 37°C at 340 nm on a DU-8 spectro- photometer. This method is essentially similar to the literature procedures (W. Ray and E. Peck, The Enzymes, 6, 407, 1972. H. Bergmeyer, "Methods of Enzymatic Analysis" Ed. H. Bergmeyer Vol. I, Academic Press, N.Y. 1974).
A series of experiments were done to determine the stabilizing effect of various inhibitors. In one experiment the enzyme preparation included was 30-70% ammonium sulfate fraction. The effects of soya bean trypsin inhibitor (10 mg/ml), tosyl phenyl chloromethyl ketone (TPCK) (2mM) and α-antitrypsin inhibitor (2 mg/ml) were studied at pH 5.0 and 7.5, in 50 mM imidazole acetate buffer; 0.2 mM EDTA, 10 mM magnesium acetate. The stability was done at two pH values as the formation and dissociation of the inhibitor complex with trypsin is pH dependent. […] PAGM enzyme may also have serine residues at the active site. […] There was some protection afforded by α-antitrypsin inhibitor over longer periods of time at pH 7.5.
In another experiment, the enzyme preparation after ammonium sulfate fractionation was purified through DEAE-Tris acryl column chromatography. […] These trace amounts of proteases were sufficient to cause denaturation of the enzyme. A stability study using various inhibitors of proteases: aprotinin (.5 mg/ml), soybean trypsin inhibitor (5 mg/ml), p-aminobenzamidine (5mM), benzamidine (5mM), α,α′-bipyridal (2 mM) and leupeptin (0.5 mg/ml) was done. The enzyme was stored at 4°C in 50 mM imidazole chloride, 2 mM Mg acetate and .2 mM EDTA, pH 7.5. The activity was assayed at different times. […] The enzymes were stable in the presence of soya bean trypsin inhibitor for one week.

[1] = system: phosphoenol pyruvate carboxylase; experiment: Stability of phosphoenol pyruvate carboxylase on storage with protease inhibitors (activity assay on TECHNICON RA-1000); type: biochemical; details: for Percent Activity Remaining at Time (hrs.): about 20 mg/ml enzyme, Benzamidine 4mM, p-Amino benzamidine 4mM, TPCK 0.5mM, Soya Bean Trypsin Inhibitor 10 mg/ml, Egg white Trypsin Inhibitor 10 mg/ml, BSA 20mg/ml, Aprotinin 0.5 mg/ml, PMSF 1 mM
Protocol: The activity assays to determine the stability of phosphoenol pyruvate carboxylase were done on a TECHNICON RA-1000 clinical analyzer in accordance with established protocols for such analysis. (TECHNICON RA-1000 is a registered trademark of Technicon Instruments Corporation, Tarrytown, N.Y.) In accordance with such protocol, the enzyme solution, R₂, was placed in the sample cup. The other constituents of the assay mixture, R₁, were placed in the reagent boat. 10 µl of R₂ were mixed with 350 µl of R₁. The reaction was done at 37°C and there was a 30 second incubation period before the readings were taken. The reported activity remaining refers to the percentage of the activity determined when fresh solutions were made initially.
The solid enzyme samples were dissolved in 50 mM Hepes, pH 7.0 containing 0.1% benzoic and .01% gentamicin (R₂). The stability study was done in R₂ containing about 20 mg/ml enzyme at room temperature. The ratio of soya bean trypsin inhibitor to phosphoenol pyruvate by weight mg/ml was 10:20. The specific activity of soya bean was 7000 BAEE inhibitor units/mg and that of phosphoenol pyruvate was one unit/mg. The components of the activity assay were in R₁ as NADH, 1.3 x 10⁻⁴M; phosphoenol pyruvate, 2.5 x 10⁻³M; magnesium acetate, 1.06 x 10⁻²M and NaHCO₃, 5 x 10⁻³M; were in 104 mM tris-acetate pH 8.3 (at room temperature).
The samples were stored at room temperature in 50 mM Hepes buffer pH 7.0 containing 0.1% benzoate acid .01% gentamycin. […]

[2] = 20 Hrs, absence of (NH₄)₂SO₄, PMSF 1mM, α-Antitrypsin Inhibitor 5 mg/ml, p-Nitrophenyl-p-Guanidinobenzoate 0.1mg/ml, Ovomucoid 10 mg/ml, D-Tryptophan methyl ester 5mM, 4-Phenyl butylamine 10mM, D-Arginine 10mM, D-phenylalanine 5mM, control 35
[3] = 20 Hrs, in presence of (NH₄)₂SO₄ (50 mM), inhibitor concentrations as without salt (PMSF 1mM, α-Antitrypsin Inhibitor 5 mg/ml, p-Nitrophenyl-p-Guanidinobenzoate 0.1mg/ml, Ovomucoid 10 mg/ml, D-Tryptophan methyl ester 5mM)
[4] = 25 Hrs, absence of (NH₄)₂SO₄, PMSF 1mM, α-Antitrypsin Inhibitor 5 mg/ml, p-Nitrophenyl-p-Guanidinobenzoate 0.1mg/ml, Ovomucoid 10 mg/ml, D-Tryptophan methyl ester 5mM, 4-Phenyl butylamine 10mM, D-Arginine 10mM, D-phenylalanine 5mM, control 26
[5] = 25 Hrs, in presence of (NH₄)₂SO₄ (50 mM), inhibitor concentrations as without salt (PMSF 1mM, α-Antitrypsin Inhibitor 5 mg/ml, p-Nitrophenyl-p-Guanidinobenzoate 0.1mg/ml, Ovomucoid 10 mg/ml, D-Tryptophan methyl ester 5mM)
[6] = 2.5 hrs at room temperature in R2 (50 mM Hepes pH 7.0), control 80
[7] = 5 hrs at room temperature in R2 (50 mM Hepes pH 7.0), control 80
[8] = 23 hrs at room temperature in R2 (50 mM Hepes pH 7.0), control 25
[9] = NaCl up to 200 mM replacing (NH₄)₂SO₄ with 10 mg/ml ovomucoid, phosphoenol pyruvate 5 mM

| Compound | Percent Activity Remaining at Time (Hrs.) [1, 2] [%] | Percent Activity Remaining at Time (Hrs.) [1, 4] [%] | Percent Activity Remaining at Time (hrs.) [1, 6] [%] | Percent Activity Remaining at Time (hrs.) [1, 7] [%] | Percent Activity Remaining at Time (hrs.) [1, 8] [%] | also measured |
| --- | --- | --- | --- | --- | --- | --- |
| CC(=O)N[C@@H](CC(C)C)C(=O)N[C@@H](CC(C)C)C(=O)N[C@H](C=O)CCCNC(=N)N [Leupeptin] |  |  |  |  |  | stabilizing effect compared between inhibitors (in words) (PGM/PAGM enzyme solution): equally effective |
| N=C(N)c1ccc(N)cc1 [p-Amino benzamidine] |  |  | 75 | 75 | 28 | time enzyme activity was protected (PGM/PAGM enzyme solution): 14 days |
| [Cl-].[Na+] [NaCl] |  |  |  |  |  | stabilizing effect on phosphoenol pyruvate carboxylase (in words) [1]: negligible |
| Cc1ccc(S(=O)(=O)N[C@@H](Cc2ccccc2)C(=O)CCl)cc1 [TPCK] |  |  | 74 | 68 | 28 | effect on PGM/PAGM activity (in words) (PGM/PAGM enzyme solution; pH 5.0, 30-70% ammonium sulfate fraction): destroyed the activity sooner than the control; effect on PGM/PAGM activity (in words) (PGM/PAGM enzyme solution; pH 7.5, 30-70% ammonium sulfate fraction, soya bean trypsin inhibitor 10 mg/ml, α-antitrypsin inhibitor 2 mg/ml): did not show any additional inactivation |
| C=C(OP(=O)(O)O)C(=O)O [phosphoenol pyruvate] |  |  |  |  |  | stabilizing effect on phosphoenol pyruvate carboxylase (in words) [1, 9]: unstable |
| c1ccc(-c2ccccn2)nc1 [α,α′-bipyridal] |  |  |  |  |  | stabilizing effect compared between inhibitors (in words) (PGM/PAGM enzyme solution): least effective |
| O=S(=O)(F)Cc1ccccc1 [PMSF, phenyl methyl sulfonyl fluoride] | 71 | 61 | 87 | 89 | 56 | Percent Activity Remaining at Time (Hrs.) [1, 3]: 90%; Percent Activity Remaining at Time (Hrs.) [1, 5]: 88%; stabilizing effect on phosphoenol pyruvate carboxylase (in words) [1, 9]: especially effective; also recorded: most effective stabilizer; original activity ([1]; PMSF in combination with ammonium sulfate, for 24 hours): 88%; Effectiveness ([1]; protection of PEPC activity, comparison of all effective inhibitors): 24 to 48 h |
| N=C(N)c1ccccc1 [Benzamidine] |  |  | 83 | 83 | 32 | time enzyme activity was protected (PGM/PAGM enzyme solution): 5 days |
| N=C(N)NCCC[C@@H](N)C(=O)O [D-Arginine] | 30 | 24 |  |  |  |  |

Continued, in another order:

| Percent Activity Remaining at Time (Hrs.) [1, 2] [%] | Percent Activity Remaining at Time (Hrs.) [1, 4] [%] | Compound | Percent Activity Remaining at Time (hrs.) [1, 6] [%] | Percent Activity Remaining at Time (hrs.) [1, 7] [%] | Percent Activity Remaining at Time (hrs.) [1, 8] [%] | also measured |
| --- | --- | --- | --- | --- | --- | --- |
| 32 | 26 | COC(=O)[C@H](N)Cc1c[nH]c2ccccc12 [D-Tryptophan methyl ester] |  |  |  | Percent Activity Remaining at Time (Hrs.) [1, 3]: 68%; Percent Activity Remaining at Time (Hrs.) [1, 5]: 71% |
| 57 | 51 | NCCCCc1ccccc1 [4-Phenyl butylamine] |  |  |  |  |
| 42 | 36 | N=C(N)Nc1ccc(C(=O)Oc2ccc([N+](=O)[O-])cc2)cc1 [p-Nitrophenyl-p-Guanidinobenzoate] |  |  |  | Percent Activity Remaining at Time (Hrs.) [1, 3]: 60%; Percent Activity Remaining at Time (Hrs.) [1, 5]: 57% |
| 57 | 51 | N[C@H](Cc1ccccc1)C(=O)O [D-phenylalanine] |  |  |  |  |
